The assay deals with T1, human chemokine receptor 2 isoform B (Homo sapiens, UniProt P41597).
T1 construct: host or cells: CHOK1-CCR2B-A5 (CHO-K1)
T1 sequence (P41597 1-360 isoform P41597-2): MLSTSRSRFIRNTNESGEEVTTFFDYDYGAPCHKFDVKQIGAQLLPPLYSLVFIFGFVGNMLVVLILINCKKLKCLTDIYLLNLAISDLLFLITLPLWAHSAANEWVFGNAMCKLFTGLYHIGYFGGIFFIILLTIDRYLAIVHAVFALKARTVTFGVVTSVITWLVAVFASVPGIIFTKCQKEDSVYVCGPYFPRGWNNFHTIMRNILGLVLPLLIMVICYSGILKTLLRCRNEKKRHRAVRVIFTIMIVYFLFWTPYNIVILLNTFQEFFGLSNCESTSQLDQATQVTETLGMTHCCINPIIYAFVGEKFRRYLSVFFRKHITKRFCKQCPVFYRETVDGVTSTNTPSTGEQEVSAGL
Put plainly: Calcium mobilization assay (FLIPR, CHOK1-CCR2B-A5 cells, 20 nM MCP-1). The class given is cell-based. The note with it: Ca mobilisation assay, CCR2, antagonist activity vs 20 nM MCP-1. The essentials:
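FLIPR Fluo-4 calcium readout in CHO-K1 cells stably overexpressing human CCR2B; compounds first monitored 80 s for agonist activity, then after 20-30 min at 30 °C challenged with 20 nM MCP-1. Response is max minus basal fluorescence; antagonist value is concentration giving 50% inhibition of specific calcium increase.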
Background: A change in cytosolic calcium serves as a functional read-out for many receptors and channels.
Consider `CC1(CO)CCN(CC(O)CN2CCN(C(=O)/C=C/c3ccc(Cl)c(Cl)c3)CCC2=O)CC1` (racemic) [Example 319], for which the IC50 (usually the midpoint of a concentration-inhibition curve) came to 265 nM.

In the case of `COC(=O)NC1CCN(CCCN2CCN(C(=O)/C=C/c3ccc(F)c(Cl)c3)CCC2=O)CC1` [Example 201], the IC50 came to 656 nM.

Take `CN(C)C1CCN(CCCN2CCN(C(=O)/C=C/c3ccc(Cl)c(Cl)c3)CCC2=O)C1` (racemic) [Example 277, (rac)-1-[(E)-3-(3,4-Dichloro-phenyl)-acryloyl]-4-[3-(3-dimethylamino-pyrollidin-1-yl)-propyl]-[1,4]diazepan-5-one]: the IC50 came out at 1290 nM.

As for `CC1(CO)CCCCN1CCCCN1CCN(C(=O)/C=C/c2ccc(F)c(Cl)c2)CCC1=O` (racemic) [Example 407], the IC50 is 264 nM.

Consider `CCN(CC)C1CCN(CCCN2CCN(C(=O)/C=C/c3ccc(Cl)c(Cl)c3)CCC2=O)C1` (racemic) [Example 278, (rac)-1-[(E)-3-(3,4-Dichloro-phenyl)-acryloyl]-4-[3-(3-diethylamino-pyrollidin-1-yl)-propyl]-[1,4]diazepan-5-one], for which the IC50 was 540 nM.

For `COCC1CCCN(CCCN2CCN(C(=O)/C=C/c3ccc(Cl)c(Cl)c3)CCC2=O)C1` (racemic) [Example 236], the IC50 stood at 565 nM.

In the case of `O=C(/C=C/c1ccc(Cl)c(Cl)c1)N1CCC(=O)N(CCCN2CCS(=O)(=O)CC2)CC1` [Example 40, 1-[(E)-3-(3,4-Dichloro-phenyl)-acryloyl]-4-[3-(1,1-dioxo-thiomorpholin-4-yl)-propyl]-[1,4]diazepan-5-one], the IC50 turned out to be 611 nM.

As for `CC1(C)CN(CCCCN2CCN(C(=O)/C=C/c3ccc(Cl)c(Cl)c3)CCC2=O)CCC1O` (racemic) [Example 464], the IC50 is 226 nM.

As to `CC1CCN(CC(O)CN2CCN(C(=O)/C=C/c3ccc(Cl)c(Cl)c3)CCC2=O)CC1O` (racemic) [Example 280], the half-maximal inhibitory concentration (IC50) is 21 nM.

In the case of `C[C@@H]1CN(CC(O)CN2CCN(C(=O)C=Cc3ccc(Cl)c(Cl)c3)CCC2=O)CC[C@@H]1O` (mixture of isomers) [Example 318], the IC50 worked out at 707 nM.

Turning to `O=C(/C=C/c1ccc(Cl)c(F)c1)N1CCC(=O)N(CCCCN2CC(O)CCC2CO)CC1` (racemic) [Example 414], the IC50 was 65 nM.

For the molecule `O=C(/C=C/c1ccc(Cl)c(Cl)c1)N1CCC(=O)N(CCCN2CCSCC2)CC1` [Example 51, 1-[(E)-3-(3,4-Dichloro-phenyl)-acryloyl]-4-(3-thiomorpholin-4-yl-propyl)-[1,4]diazepan-5-one], the IC50 stood at 46 nM.

With `O=C(/C=C/c1ccc(Cl)c(Cl)c1)N1CCC(=O)N(CCCN2CCC(O)(c3cccnc3)CC2)CC1` [Example 70, 1-[(E)-3-(3,4-Dichloro-phenyl)-acryloyl]-4-[3-(4′-hydroxy-3′,4′,5′,6′-tetrahydro-2′H-[3,4′]bipyridinyl-1′-yl)-propyl]-[1,4]diazepan-5-one], the IC50 came to 146 nM.

In the case of `COCC1CN(CCCCN2CCN(C(=O)/C=C/c3ccc(Cl)c(Cl)c3)CCC2=O)CCC1O` (racemic) [Example 451], the IC50 stood at 682 nM.

With `CC1(CO)CCCN1CC(O)CN1CCN(C(=O)C=Cc2ccc(Cl)c(Cl)c2)CCC1=O` (racemic) [Example 322], the IC50 was determined as 1200 nM.

In the case of `O=C(/C=C/c1ccc(Cl)c(Cl)c1)N1CCC(=O)N(CC(O)CN2CCC3(CC3)C(O)C2)CC1` (racemic) [Example 309, (rac)-1-[(E)-3-(3,4-Dichloro-phenyl)-acryloyl]-4-[2-hydroxy-3-(4-hydroxy-6-aza-spiro[2.5]oct-6-yl)-propyl]-[1,4]diazepan-5-one], the IC50 was 16 nM.

Turning to `O=C(/C=C/c1ccc(Cl)c(Cl)c1)N1CCC(=O)N(CC(O)CN2CCC(F)CC2)CC1` (racemic) [Example 169, (rac)-1-[(E)-3-(3,4-Dichloro-phenyl)-acryloyl]-4-[3-(4-fluoro-piperidin-1-yl)-2-hydroxy-propyl]-[1,4]diazepan-5-one], the IC50 came out at 255 nM.

For `CC1(CO)CCCN1CCCN1CCN(C(=O)/C=C/c2ccc(Cl)c(Cl)c2)CCC1=O` (racemic) [Example 255], the half-maximal inhibitory concentration (IC50) is 561 nM.

With `CC1(CO)CCN(CCCCN2CCN(C(=O)C=Cc3ccc(Cl)c(F)c3)CCC2=O)CC1O` (stereo not drawn) [Example 411], the IC50 worked out at 199 nM.

As to `CCOC(=O)NC1CCN(CCCN2CCN(C(=O)/C=C/c3ccc(Cl)c(Cl)c3)CCC2=O)CC1` [Example 82, [1-(3-{4-[(E)-3-(3,4-Dichloro-phenyl)-acryloyl]-7-oxo-[1,4]diazepan-1-yl}-propyl)-piperidin-4-yl]-carbamic acid ethyl ester], the IC50 is 297 nM.

Regarding `CC1(C)CCN(CC(O)CN2CCN(C(=O)/C=C/c3ccc(F)c(F)c3)CCC2=O)CC1O` (racemic) [Example 499], the concentration for half-maximal inhibition (IC50) amounted to 84 nM.

On to `C[C@@H]1C[C@H](O)CN(CC(O)CN2CCN(C(=O)/C=C/c3ccc(F)c(F)c3)CCC2=O)C1` (mixture of isomers) [Example 504], for which the IC50 was 316 nM.

With `CC1(CO)CCCN1CC(O)CCN1CCN(C(=O)/C=C/c2ccc(Cl)c(Cl)c2)CCC1=O` (racemic) [Example 381], the IC50 turned out to be 236 nM.

Regarding `COCC1CCC(O)CN1CCCCN1CCN(C(=O)/C=C/c2ccc(Cl)c(F)c2)CCC1=O` (racemic) [Example 418], the IC50 amounted to 1470 nM.

On to `O=C(/C=C/c1cccc(Cl)c1)N1CCC(=O)N(CCN2CCC(c3c[nH]c4cc(F)ccc34)CC2)CC1` [Example 27, 1-[(E)-3-(3-Chloro-phenyl)-acryloyl]-4-{3-[4-(6-fluoro-1H-indol-3-yl)-piperidin-1-yl]-ethyl}-[1,4]diazepan-5-one], for which the IC50 amounted to 248 nM.

Take `CC1CCN(CCCN2CCN(C(=O)/C=C/c3ccc(F)c(Cl)c3)CCC2=O)CC1O` (single isomer, unassigned) [Example 191, 1-[(E)-3-(3-Chloro-4-fluoro-phenyl)-acryloyl]-4-[3-((−, cis)-3-hydroxy-4-methyl-piperidin-1-yl)-propyl]-[1,4]diazepan-5-one]: the IC50 was determined as 25 nM.

Take `CC(C)N1CCN(CC(O)CN2CCN(C(=O)/C=C/c3ccc(Cl)c(Cl)c3)CCC2=O)CC1` (racemic) [Example 296]: the concentration for half-maximal inhibition (IC50) stood at 298 nM.

As for `O=C(/C=C/c1ccc(Cl)c(Cl)c1)N1CCC(=O)N(CCC(O)CN2CCCC(CO)C2)CC1` (racemic) [Example 378], the IC50 stood at 1240 nM.

As to `O=C(/C=C/c1ccc(Cl)c(Cl)c1)N1CCC(=O)N(CCCCN2CCN(C3CC3)CC2)CC1` [Example 437], the IC50 is 463 nM.

As to `CC1CCC(O)CN1CCCCN1CCN(C(=O)/C=C/c2ccc(Cl)c(Cl)c2)CCC1=O` (racemic) [Example 475], the IC50 stood at 20 nM.

For `COCC1(C)CCCN(CCCCN2CCN(C(=O)/C=C/c3ccc(Cl)c(Cl)c3)CCC2=O)C1` (racemic) [Example 446], the IC50 amounted to 626 nM.

On to `O=C(/C=C/c1ccc(Cl)c(Cl)c1)N1CCC(=O)N(CCCN2CCC(O)C2)CC1` (racemic) [Example 71, (+/−)-1-[(E)-3-(3,4-Dichloro-phenyl)-acryloyl]-4-[3-(3-hydroxy-pyrrolidin-1-yl)-propyl]-[1,4]diazepan-5-one], for which the IC50 amounted to 566 nM.

Turning to `C[C@@H]1CN(CC(O)CN2CCN(C(=O)/C=C/c3ccc(Cl)c(Cl)c3)CCC2=O)CC[C@H]1O` (mixture of isomers) [Example 316, (rac)-1-[(E)-3-(3,4-Dichloro-phenyl)-acryloyl]-4-[2-hydroxy-3-(trans-4-hydroxy-3-methyl-piperidin-1-yl)-propyl]-[1,4]diazepan-5-one], the IC50 worked out at 755 nM.

For the molecule `CN(CCCN1CCN(C(=O)/C=C/c2ccc(Cl)c(Cl)c2)CCC1=O)C1CCCCC1` [Example 39, 4-[3-(Cyclohexyl-methyl-amino)-propyl]-1-[(E)-3-(3,4-dichloro-phenyl)-acryloyl]-[1,4] diazepan-5-one], the concentration for half-maximal inhibition (IC50) is 538 nM.

Consider `CC(=O)NC1CCN(CCCN2CCN(C(=O)/C=C/c3ccc(Cl)c(Cl)c3)CCC2=O)C1` (racemic) [Example 44, (+/−)-N-[1-(E)-(3-{4-[3-(3,4-Dichloro-phenyl)-acryloyl]-7-oxo-[1,4]diazepan-1-yl}-propyl)-pyrrolidin-3-yl]-acetamide], for which the IC50 was 646 nM.

In the case of `COC1CCC(CO)N(CCCCN2CCN(C(=O)/C=C/c3ccc(Cl)c(Cl)c3)CCC2=O)C1` (racemic) [Example 477], the IC50 was 313 nM.

Consider `CC1CCCN1CCN1CCN(C(=O)/C=C/c2ccc(Cl)c(Cl)c2)CCC1=O` (racemic) [Example 348], for which the IC50 stood at 765 nM.

For `O=C(/C=C/c1ccc(Cl)c(Cl)c1)N1CCC(=O)N(CC(O)CN2CCC(O)CC2)CC1` (stereo not drawn) [Example 285], the IC50 came to 644 nM.

On to `O=C(/C=C/c1ccc(Cl)c(F)c1)N1CCC(=O)N(CCCN2CCCCC2)CC1` [Example 13, 1-[(E)-3-(4-Chloro-3-fluoro-phenyl)-acryloyl]-4-(3-piperidin-1-yl-propyl)-[1,4]diazepan-5-one], for which the IC50 came to 727 nM.

In the case of `CC1(CO)CCCCN1CCCN1CCN(C(=O)/C=C/c2ccc(Cl)c(Cl)c2)CCC1=O` (racemic) [Example 250], the IC50 was determined as 812 nM.

`CC1CCN(CC(O)CCN2CCN(C(=O)/C=C/c3ccc(Cl)c(Cl)c3)CCC2=O)CC1O` (racemic) [Example 359]: the IC50 was determined as 807 nM.

In the case of `O=C(/C=C/c1ccc(F)c(Cl)c1)N1CCC(=O)N(CCCN2CCCCC2)CC1` [Example 11, 1-[(E)-3-(3-Chloro-4-fluoro-phenyl)-acryloyl]-4-(3-piperidin-1-yl-propyl)-[1,4]diazepan-5-one], the IC50 was determined as 363 nM.

Source of the values: US7632829B2, “Diazepan derivatives” (Hoffmann-La Roche Inc., priority 2006, dated 2009).
